Read-outs that look alike come from different tables or passages of the source.
Experiments:
[1] = biological target: yeast α-glucosidase (Saccharomyces cerevisiae, UniProt P53341); test: biochemical; format: biochemical; conditions: for α-glucosidase inhibitory activity, in words: SAR discussion; for IC50: read-out: IC50 (μM), in vitro α-glucosidase inhibitory activity
Text: On the other hand, there are phenyl, 4-methylphenyl, and or 4-methoxyphenyl groups in the benzenesulfonamide moiety.

[2] = biological target: T1, α-amylase (Homo sapiens, UniProt P04746); test: In vitro α-amylase inhibition assay; format: biochemical; conditions: at 300 μM
T1 sequence (P04746 16-511): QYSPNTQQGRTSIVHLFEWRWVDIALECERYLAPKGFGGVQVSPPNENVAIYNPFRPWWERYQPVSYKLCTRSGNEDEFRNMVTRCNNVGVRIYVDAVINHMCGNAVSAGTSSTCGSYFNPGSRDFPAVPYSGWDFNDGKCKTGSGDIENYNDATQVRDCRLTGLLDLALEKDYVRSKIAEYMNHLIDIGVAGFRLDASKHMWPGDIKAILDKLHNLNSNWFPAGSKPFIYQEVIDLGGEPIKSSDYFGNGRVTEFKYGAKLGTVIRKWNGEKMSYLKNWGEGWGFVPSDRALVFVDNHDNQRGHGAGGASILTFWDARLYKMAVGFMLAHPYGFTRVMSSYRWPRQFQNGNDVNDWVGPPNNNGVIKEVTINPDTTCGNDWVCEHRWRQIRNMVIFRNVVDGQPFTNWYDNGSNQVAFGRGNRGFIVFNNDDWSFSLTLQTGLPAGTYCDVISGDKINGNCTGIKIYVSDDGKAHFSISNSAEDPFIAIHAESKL

[3] = biological target: α-glucosidase; conditions: read-out: IC50 against α-glucosidase, cited from earlier work

Sequence of yeast α-glucosidase (P53341 whole entry): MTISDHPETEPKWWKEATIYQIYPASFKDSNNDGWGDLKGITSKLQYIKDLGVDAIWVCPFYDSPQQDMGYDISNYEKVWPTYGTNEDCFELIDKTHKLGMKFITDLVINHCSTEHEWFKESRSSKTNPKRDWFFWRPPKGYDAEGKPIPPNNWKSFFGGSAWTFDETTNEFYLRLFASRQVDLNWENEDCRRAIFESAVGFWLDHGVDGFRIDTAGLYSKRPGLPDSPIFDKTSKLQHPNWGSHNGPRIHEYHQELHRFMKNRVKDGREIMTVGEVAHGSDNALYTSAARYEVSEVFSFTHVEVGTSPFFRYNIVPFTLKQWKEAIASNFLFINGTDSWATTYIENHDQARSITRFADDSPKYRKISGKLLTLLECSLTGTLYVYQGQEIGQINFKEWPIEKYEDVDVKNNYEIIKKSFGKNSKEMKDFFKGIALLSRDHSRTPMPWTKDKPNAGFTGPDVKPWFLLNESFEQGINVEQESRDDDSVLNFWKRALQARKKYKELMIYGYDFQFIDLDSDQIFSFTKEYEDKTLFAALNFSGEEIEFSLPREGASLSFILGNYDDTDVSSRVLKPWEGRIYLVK

Row | Structure (SMILES) | α-glucosidase inhibitory activity, in words [1] | IC50 [1] | melting point | further results
1 | COc1ccc(S(=O)(=O)N=C(CCN2C(=O)c3ccccc3C2=O)N2CCCCC2)cc1 [Compound 4c, N-(3-(1,3-dioxoisoindolin-2-yl)-1-(piperidin-1-yl)propylidene)-4-methoxybenzenesulfonamide] | good anti-α-glucosidase activity | 200.29 ± 0.1 µM | 146 to 148 °C | –
2 | Cc1ccc(S(=O)(=O)N=C(CCN2C(=O)c3ccccc3C2=O)N2CCOCC2)cc1 [Compound 4e, N-(3-(1,3-Dioxoisoindolin-2-yl)-1-morpholinopropylidene)-4-methylbenzenesulfonamide] | high inhibitory activity | 117 ± 0.14 µM | 204 to 206 °C | inhibition effect against α-amylase [2]: no inhibition effect
3 | COc1ccc(S(=O)(=O)N=C(CCN2C(=O)c3ccccc3C2=O)N2CCC(Cc3ccccc3)CC2)cc1 [Compound 4k] | inactive | – | – | –
4 | O=C(N/N=C/c1ccc(OCCCN2C(=O)c3ccccc3C2=O)cc1)c1cc2ccccc2oc1=O [E] | – | – | – | IC50 ([3]; Fig. 2, phthalimide-coumarin E study): 85.2 µM
5 | O=C1c2ccccc2C(=O)N1CCC(=NS(=O)(=O)c1ccccc1)N1CCN(c2ccccc2)CC1 [Compound 4l, N-(3-(1,3-dioxoisoindolin-2-yl)-1-(4-phenylpiperazin-1-yl)propylidene)benzenesulfonamide] | – | – | 160 to 164 °C | –
6 | Cc1ccc(S(=O)(=O)N=C(CCN2C(=O)c3ccccc3C2=O)N2CCCCC2)cc1 [Compound 4b, N-(3-(1,3-Dioxoisoindolin-2-yl)-1-(piperidin-1-yl)propylidene)-4-methylbenzenesulfonamide] | high inhibitory activity | 127.24 ± 0.1 µM | 198 to 200 °C | –
7 | O=C1c2ccccc2C(=O)N1CCC(=NS(=O)(=O)c1ccccc1)N1CCC(Cc2ccccc2)CC1 [Compound 4i, N-(1-(4-benzylpiperidin-1-yl)-3-(1,3-dioxoisoindolin-2-yl)propylidene)benzenesulfonamide] | high inhibitory activity | 84.3 ± 0.4 µM | – | –
8 | O=C1c2ccccc2C(=O)N1CCC(=NS(=O)(=O)c1ccccc1)N(c1ccccc1)c1ccccc1 [Compound 4g, 3-(1,3-Dioxoisoindolin-2-yl)-N,N-diphenyl-N'-(phenylsulfonyl)propanimidamide] | moderate inhibitory activity | 478 ± 0.07 µM | 202 to 204 °C | –
9 | O=C1c2ccccc2C(=O)N1CCCOc1ccc(Cl)c(Cl)c1 [A] | – | – | – | IC50 ([3]; Fig. 2, phthalimide derivative A study): 7.55 µM
10 | NS(=O)(=O)c1ccc(N/N=C/c2coc3ccccc3c2=O)cc1 [D] | – | – | – | IC50 ([3]; Fig. 2, chromone-benzenesulfonamid D study): 20.1 µM
11 | Cc1ccc(S(=O)(=O)N=C(CCN2C(=O)c3ccccc3C2=O)N(c2ccccc2)c2ccccc2)cc1 [Compound 4h, 3-(1–3-Dioxoisoindolin-2-yl)-N,N-diphenyl-N’-tosylpropanimidamide] | moderate α-glucosidase inhibitors | 497 ± 0.25 µM | 202 to 204 °C | –
12 | COc1ccc(S(=O)(=O)N=C(CCN2C(=O)c3ccccc3C2=O)N2CCOCC2)cc1 [Compound 4f, N-(3-(1,3-Dioxoisoindolin-2-yl)-1-morpholinopropylidene)-4-methoxybenzenesulfonamide] | – | – | 172 to 174 °C | –
13 | Cc1ccc(S(=O)(=O)Nc2ccc3c(c2)C(=O)N(CCOc2ccc(O)cc2)C3=O)cc1 [B] | – | – | – | IC50 ([3]; Fig. 2, phthalimide-benzenesulfonamid B study): 25.5 µM
14 | O=C1c2ccccc2C(=O)N1CCC(=NS(=O)(=O)c1ccccc1)N1CCCCC1 [Compound 4a, N-(3-(1,3-Dioxoisoindolin-2-yl)-1-(piperidin-1-yl)propylidene)benzenesulfonamide] | inactive | – | 158 to 160 °C | –
15 | O=C1c2ccccc2C(=O)N1CCC(=NS(=O)(=O)c1ccccc1)N1CCOCC1 [Compound 4d, N-(3-(1,3-dioxoisoindolin-2-yl)-1-morpholinopropylidene)benzenesulfonamide] | inactive | – | 168 to 170 °C | –

Source: paper PMC9217978, “Design, synthesis, in vitro α-glucosidase inhibition, docking, and molecular dynamics of new phthalimide-benzenesulfonamide hybrids for targeting type 2 diabetes” (Scientific Reports, 2022)
